# Reference: EP1210350B1, “WATER SOLUBLE SDZ-RAD ESTERS” (Wyeth, priority 1999, dated 2001)
# Where two headings read alike, the source gives them in different places.
# System: U87MG Human Glioblastoma (ATCC # HTB-14)
# Assay: 3H thymidine incorporation in U87MG human glioblastoma cells
# Assay type: cell-based
# Conditions: 48 hours incubation with compound, 3H thymidine for the last 5 hours
# Description: U87MG Human Glioblastoma (ATCC # HTB-14)
# 3H Thymidine Incorporation Protocol
# • Growth Medium: BRL Minimum Essential Medium with Earle Salts (500 ml) + 5mLBRL MEM Non-Essential Amino Acids (10mM) +5 mLBRL Penicillin-Streptomycin (10000u/ml,10000ug/ml) +5mLBRL Na Pyruvate Solution (100mM) +5mLBRL L-Glutamine 200mM +50mLBRL Fetal Bovine Serum (Qualified) • Assay: • 1. Cells were trypsinized and plated at a concentration of 10^4 cells/well in a final volume of 200 µl growth medium in 96-well flat bottom plates and allowed to adhere for 24 hours at 37°C. • 2. The media was removed by aspiration with care to not disturb the cell monolayer. 200 µl of fresh growth media was added per well, allowing enough wells for samples to be run in triplicate. Compounds were added in 10 µl PBS solutions and incubated for another 48 hours at 37°C. • 3. During the last 5 hours of incubation, plates were labeled with 1µCi 3H thymidine per well. (NEN thymidine, catalog # NET-027, 6.7 Ci/mmole). The 1µCi was added in 10 µl of PBS (on the day of harvest.). The plates were returned to the incubator for the last 5 hours. • 4. The radioactive media was removed by aspiration, with care not to disturb the cell monolayer. 50 µl of BRL 10X Trypsin was added to each well, followed by incubation at 37°C for 10 minutes or until the monolayer was loosened from the well bottom. […] Mats were counted in a Wallac Betaplate counter.
IC50 [ng/mL],"IC50 (Homo sapiens, U-87 MG, read-out: IC50) [ng/mL]",Compound
2.0,,"CO[C@H]1C[C@@H]2CC[C@@H](C)[C@@](O)(O2)C(=O)C(=O)N2CCCC[C@H]2C(=O)O[C@H]([C@H](C)C[C@@H]2CC[C@@H](OCCO)[C@H](OC)C2)CC(=O)[C@H](C)/C=C(\C)[C@@H](O)[C@@H](OC)C(=O)[C@H](C)C[C@H](C)/C=C/C=C/C=C/1C [SDZ-RAD, 40-O-(2-hydroxy)ethyl-rapamycin]"
,0.5,CO[C@H]1C[C@@H]2CC[C@@H](C)[C@@](O)(O2)C(=O)C(=O)N2CCCC[C@H]2C(=O)O[C@H]([C@H](C)C[C@@H]2CC[C@@H](O)[C@H](OC)C2)CC(=O)[C@H](C)/C=C(\C)[C@@H](O)[C@@H](OC)C(=O)[C@H](C)C[C@H](C)/C=C/C=C/C=C/1C [Rapamycin]
